The target of test [1] is T1, SHP2 (Homo sapiens, UniProt Q06124).
T1 sequence (Q06124 1-593): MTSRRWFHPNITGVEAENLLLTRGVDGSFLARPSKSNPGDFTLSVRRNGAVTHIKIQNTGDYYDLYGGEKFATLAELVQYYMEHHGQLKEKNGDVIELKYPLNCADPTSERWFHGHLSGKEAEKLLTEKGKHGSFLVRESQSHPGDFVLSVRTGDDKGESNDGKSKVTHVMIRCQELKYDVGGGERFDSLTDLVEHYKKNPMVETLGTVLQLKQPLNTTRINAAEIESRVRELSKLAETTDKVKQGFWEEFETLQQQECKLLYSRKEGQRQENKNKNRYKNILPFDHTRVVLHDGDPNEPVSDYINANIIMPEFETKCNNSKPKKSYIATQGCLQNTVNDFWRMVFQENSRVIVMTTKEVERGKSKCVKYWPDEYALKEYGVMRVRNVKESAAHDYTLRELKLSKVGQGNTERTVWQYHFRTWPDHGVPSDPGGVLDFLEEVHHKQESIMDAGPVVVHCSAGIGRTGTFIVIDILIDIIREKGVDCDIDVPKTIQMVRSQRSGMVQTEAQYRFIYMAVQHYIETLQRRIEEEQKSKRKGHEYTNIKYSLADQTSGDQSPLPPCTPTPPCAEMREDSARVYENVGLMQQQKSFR
Nature of the test: SHP2 biochemical assay (DiFMUP conversion). Conditions: 10 pM SHP2, 0.25 μM pIRS1 peptide, 50 μM DiFMUP. The method, then:
(1) SHP2 Biochemical Assay SHP2 Activity was Monitored by Measuring the Conversion of the Surrogate Substrate 6,8-Difluoromethylumbelliferyl Phosphate (DiEMUP) to the Fluorescent Product, 6,8-Difluoromethylumbelliferone (DiFMU).
SHP2 was pre-incubated with test compounds and the activating peptide pIRS1 (H2N-LN(pY) IDLDLV-(PEG) 8-LST(pY)ASINFQK-amide) for 30 min, prior to addition of the 6,8-difluoromethylumbelliferyl phosphate (DiEMUP), (Thermo Fisher D6567). Final assay concentrations were 10 pM SHP2, 0.25 μM pIRS1 peptide, 50 μM DiFMUP, 25 mM Bis-Tris propane, pH 7.0, 150 mM NaCl, 0.05% (v/v) Tween-20, 0.5 mM TCEP and 5% (v/v) DMSO. Rates of reaction were then measured over 30 min by monitoring fluorescence on a BMG Pherastar reader at excitation 360 nm/emission 450 nm. IC50 values were calculated in singlicate from the normalized dose-response plots using four parameter logistic curve fit. The Experiment for each compound was carried out in one time or multiple times, and the IC50 values were shown as a single value (for a compound measured in a single experiment) or an average value (for a compound measured in multiple experiments).

The subject of test [2] is RMG-I. Nature of the test: Anti-proliferation assay (CellTiter-Glo 2.0), combination index, RMG-I. The format is cell-based. A digest of the protocol:
(§1)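 Cells were seeded at 500/well in 10% FBS medium and grown 24 h at 37°C before dosing. Compound 1 (10 concentrations) was combined with a second antitumor agent (8 concentrations including 0 nM) for 3 days. Viability was read by CellTiter-Glo 2.0 luminescence, and a combination index was calculated at each concentration pair.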
Background: ATP-based viability assays read luminescence as a measure of living cells.

Test [3] relates to NCI-H358. Nature of the test: Anti-proliferation assay (CellTiter-Glo 2.0), combination index, NCI-H358. The format is cell-based. A digest of the protocol: (§2)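 Cells were seeded at 500 cells/well in medium with 10% FBS and exposed to agents at 8 concentrations including 0 nM, for 3 days at 37° C under 5% CO2. Survival was read by CellTiter-Glo 2.0 luminescence, and combination index was determined at each combined concentration.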

In test [4] the test system is MV-4-11. Nature of the test: Anti-proliferation assay (CellTiter-Glo 2.0), combination index, MV-4-11. The format is cell-based. Summed up:
as §1

In test [5] the test system is MKN45. Nature of the test: Anti-proliferation assay (CellTiter-Glo 2.0), combination index, MKN45. The format is cell-based. Summed up: as §2
In test [6] the test system is NCI-H23. The test can be described thus: Anti-proliferation assay (CellTiter-Glo 2.0), combination index, NCI-H23. The format is cell-based. The protocol:
Cell lines were obtained from ATCC or Health Science Research Resources Bank.
Each cell lines were collected by ordinary method, then suspended in indicated medium containing 10% fetal bovine serum in table 3. The number of cells seeded per well was set to 500 cells/20 μL. […] The concentration of each anti-cancer reagents set to 8 concentrations including 0 nM. After adding the medicine to the cells, the cells were further incubated at 37° C. for 3 days under 5% CO2. Cell survival rates were calculated by adding 20 μL of CellTiter-Glo(registered trademark) 2. 0 (Promega) solution to each well, incubating the cells at room temperature for 10 minutes, and then measuring the chemiluminescence intensity of each well using a plate reader (ARVO).
A combination index (CI) value at each combined concentration of the medicines was determined.

Setting [7] is: Compound 1 1.52 + combination drug 123 nmol/L (1:81).
Setting [8] is: Compound 1 4.57 + combination drug 370 nmol/L (1:81).
Setting [9] is: Compound 1 13.7 + combination drug 1110 nmol/L (1:81).
The mark [10] stands for this setting: Compound 1 41.2 + combination drug 3330 nmol/L (1:81).
Where [11] appears, read: Compound 1 123 + combination drug 10000 nmol/L (1:81).
The mark [12] stands for this setting: Compound 1 123 + combination drug 370 nmol/L (1:3).
Setting [13] is: Compound 1 370 + combination drug 1110 nmol/L (1:3).
The mark [14] stands for this setting: Compound 1 1110 + combination drug 3330 nmol/L (1:3).
Where [15] appears, read: Compound 1 3330 + combination drug 10000 nmol/L (1:3).
The mark [16] stands for this setting: Compound 1 1.52 + combination drug 41.2 nmol/L (1:27).
Where [17] appears, read: Compound 1 4.57 + combination drug 123 nmol/L (1:27).
[18] abbreviates: Compound 1 13.7 + combination drug 370 nmol/L (1:27).
The mark [19] stands for this setting: Compound 1 41.2 + combination drug 1110 nmol/L (1:27).
Setting [20] is: Compound 1 123 + combination drug 3330 nmol/L (1:27).
Where [21] appears, read: Compound 1 370 + combination drug 10000 nmol/L (1:27).
The mark [22] stands for this setting: Compound 1 41.2 + combination drug 123 nmol/L (1:3).

Compound `Cn1nc2ccc(-c3n[nH]c4nc(N5C[C@H]6CC[C@@H]5[C@@H]6N)n(C)c(=O)c34)c(Cl)c2c1Cl` [Compound 2, 6-((1R,4R,7R)-7-amino-2-azabicyclo[2.2.1]heptan-2-yl)-3-(3,4-dichloro-2-methyl-2H-indazol-5-yl)-5-methyl-1,5-dihydro-4H-pyrazolo[3,4-d]pyrimidin-4-one] displayed an IC50 in test [1] of 2.6 nM.

`Cn1nc2ccc(-c3c[nH]c4nc(N5[C@H]6CC[C@@H]5[C@H](N)C6)n(C)c(=O)c34)c(F)c2c1Cl` [Compound 6, 2-((1R,2R,4S)-2-amino-7-azabicyclo[2.2.1]heptan-7-yl)-5-(3-chloro-4-fluoro-2-methyl-2H-indazol-5-yl)-3-methyl-3,7-dihydro-4H-pyrrolo[2,3-d]pyrimidin-4-one]: in test [1], the IC50 was found to be 2.8 nM.

Compound `CCn1cc2c(Cl)c(-c3c[nH]c4nc(N5[C@H]6CC[C@@H]5[C@H](N)C6)n(C)c(=O)c34)ccc2n1` [Compound 7, 2-((1R,2R,4S)-2-amino-7-azabicyclo[2.2.1]heptan-7-yl)-5-(4-chloro-2-ethyl-2H-indazol-5-yl)-3-methyl-3,7-dihydro-4H-pyrrolo[2,3-d]pyrimidin-4-one] yielded an IC50 in test [1] of 3.3 nM.

In the case of `NC1(c2ccc(-c3nc4ccn5c(=O)[nH]nc5c4cc3-c3ccccc3)cc2)CCC1` [MK-2206, 8-[4-(1-aminocyclobutyl)phenyl]-9-phenyl-1,2,4-triazolo[3,4-f][1,6]naphthyridin-3(2H)-one], the CI in test [2] (setting [7]) is given as 0.724; in test [2] (setting [8]), 0.398; in test [2] (setting [9]) it was 0.314; in test [2] (setting [10]), 0.320; in test [2] (setting [11]) it was 0.353; in test [3] (setting [12]), 0.477. The CI in test [3] (setting [13]) came to 0.204; in test [3] (setting [14]), 0.301; in test [3] (setting [15]), 0.213; in test [4] (setting [7]) it was 0.315; in test [4] (setting [8]), 0.520; in test [4] (setting [9]), 0.446. The CI in test [4] (setting [10]) was determined as 0.318; in test [4] (setting [11]), 0.137; in test [5] (setting [16]), 0.315; in test [5] (setting [17]) it was 0.564; in test [5] (setting [18]), 0.408; in test [5] (setting [19]) it was 0.383. Moreover, the CI in test [5] (setting [20]) was determined as 0.420; in test [5] (setting [21]), 0.608; in test [6] (setting [22]), 0.783; in test [6] (setting [12]), 0.265; in test [6] (setting [13]), 0.232; in test [6] (setting [14]), 0.295. For the same compound, the CI in test [6] (setting [15]) stood at 0.340. In addition, the Fa was determined as 0.1204 in test [2] (setting [7]); 0.2545 in test [2] (setting [8]); 0.4133 in test [2] (setting [9]); 0.5593 in test [2] (setting [10]); 0.6868 in test [2] (setting [11]); 0.2532 in test [3] (setting [12]). Besides, the Fa in test [3] (setting [13]) turned out to be 0.4838; in test [3] (setting [14]), 0.5761; in test [3] (setting [15]), 0.7446; in test [4] (setting [7]) it was 0.2639; in test [4] (setting [8]), 0.3899; in test [4] (setting [9]), 0.6851. Further, the Fa was determined as 0.9006 in test [4] (setting [10]); 0.9846 in test [4] (setting [11]); 0.1506 in test [5] (setting [16]); 0.1981 in test [5] (setting [17]); 0.3872 in test [5] (setting [18]); 0.5869 in test [5] (setting [19]). The Fa in test [5] (setting [20]) is on record as 0.7489; in test [5] (setting [21]), 0.8398; in test [6] (setting [22]), 0.1015; in test [6] (setting [12]), 0.2110; in test [6] (setting [13]), 0.3486; in test [6] (setting [14]) it was 0.5074. For the same compound, the Fa in test [6] (setting [15]) amounted to 0.7061. Moreover, the “Description (combinatory effect by CI)” value in test [2] (Compound 1:combination drug molar ratio 1:81) and in test [5] (Compound 1:combination drug molar ratio 1:27) was “Synergy (0.3-0.7)” in each case.

In test [1], `Cn1nc2ccc(-c3c[nH]c4nc(N5C[C@H]6CC[C@@H]5[C@@H]6N)n(C)c(=O)c34)c(Cl)c2c1Cl` [Compound 5, 2-((1R,4R,7R)-7-amino-2-azabicyclo[2.2.1]heptan-2-yl)-5-(3,4-dichloro-2-methyl-2H-indazol-5-yl)-3-methyl-3,7-dihydro-4H-pyrrolo[2,3-d]pyrimidin-4-one] returned an IC50 of 1.5 nM.

Turning to `Cn1cc2c(Cl)c(-c3c[nH]c4nc(N5C[C@H]6CC[C@@H]5[C@@H]6N)n(C)c(=O)c34)ccc2n1` [Compound 4, 2-((1R,4R,7R)-7-amino-2-azabicyclo[2.2.1]heptan-2-yl)-5-(4-chloro-2-methyl-2H-indazol-5-yl)-3-methyl-3,7-dihydro-4H-pyrrolo[2,3-d]pyrimidin-4-one], the concentration for half-maximal inhibition (IC50) in test [1] amounted to 3.7 nM.

For orientation: IC50 means the point on the concentration scale where inhibition reaches its midpoint. Lower therefore signals higher potency.

The values above are taken from US20230146795A1, “ENHANCEMENT OF ANTI-TUMOR ACTIVITY OF SHP2 INHIBITOR PYRIMIDINONE IN COMBINATION WITH NOVEL CANCER MEDICINES IN CANCERS” (TAIHO PHARMACEUTICAL CO., LTD., priority 2020, published 2023).
